{"source": "patent US9873683B2", "about": "“P2X4 receptor antagonist” (NIPPON CHEMIPHAR CO., LTD., priority 2013, dated 2018)", "note": "Values joined by “and” are separate entries in the source; they are usually repeats but may differ in a detail not shown here. Identical values can stand only once. Counter-ions that a name gives are not always drawn.", "data": [{"biological_target": "human P2X4 receptor (Homo sapiens (Human), UniProt Q99571)", "sequence (Q99571 whole entry)": "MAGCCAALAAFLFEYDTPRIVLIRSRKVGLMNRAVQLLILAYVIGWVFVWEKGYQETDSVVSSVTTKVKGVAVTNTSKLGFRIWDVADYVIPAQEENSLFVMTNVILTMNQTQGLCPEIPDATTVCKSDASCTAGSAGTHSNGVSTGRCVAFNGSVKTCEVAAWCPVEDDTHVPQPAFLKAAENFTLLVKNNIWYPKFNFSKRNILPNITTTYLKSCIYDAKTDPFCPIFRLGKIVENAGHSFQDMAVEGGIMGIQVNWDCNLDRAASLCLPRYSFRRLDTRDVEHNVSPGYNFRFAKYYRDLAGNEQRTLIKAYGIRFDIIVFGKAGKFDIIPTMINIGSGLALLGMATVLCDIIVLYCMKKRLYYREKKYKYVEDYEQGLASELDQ", "experiment": "P2X4 receptor antagonist activity (ATP-induced intracellular calcium, Fura-2 AM)", "format": "cell-based", "details": "1321N1 cells stably expressing human P2X4 receptor; test substance 15 minutes before addition of ATP; Fura-2 AM F340/F380; read-out: Inhibitory activity IC50", "procedure": "The ATP receptor (human P2X4) was introduced into the 1321N1 cells, and the cells were used as a stable ATP receptor expression system. The P2X4-expressing 1321N1 cells were seeded on a 96-well plate, cultured under the conditions of 37° C. and 5% CO2 for 24 hours, and used for calcium measurement. […] For the measurement, a microplate reader, Fluostar Optima (BMG Labtech), was used. The light emitted from a xenon lamp was passed through 340 nm and 380 nm filters, respectively, and irradiated on the cells, fluorescences of 510 nm, F340 and F380, emitted from the cells were measured, and change of the ratio F340/F380 was used as an index of change of intracellular calcium level. The measurement was performed by adding ATP to each well at a final concentration of 1 μM, and observing the ATP-induced Ca^2+ response over time.\nThe 1321N1 cells stably expressing human P2X4 receptor were seeded on a 96-well plate, cultured under the conditions of 37° C. and 5% CO2 for 24 hours, and then used for intracellular calcium measurement. Fura-2 AM, which is a calcium fluorescent indicator, was used for the intracellular calcium measurement. […] The ratio of fluorescence values obtained with excitation lights of 340 nm and 380 nm was used as an index of the change of intracellular calcium level, and the inhibitory activity of the test substance was calculated on the basis of the comparison with the value obtained in the absence of the test substance (control).", "values": [{"compound": "5-[4-[(5-Phenylethyl)-1H-imidazol-4-yl]phenyl]-1H-naphtho[1,2-b][1,4]diazepine-2,4(3H,5H)-dione hydrochloride [Example 73]", "IC50": "320 nM"}, {"compound": "COc1ccccc1Cc1nnnn1-c1ccc(N2C(=O)CC(=O)Nc3c2ccc2ccccc32)cc1", "note": "[Example 1, 5-[4-[5-(2-Methoxybenzyl)-1H-tetrazol-1-yl]phenyl]-1H-naphtho[1,2-b][1,4]diazepine-2,4(3H,5H)-dione]", "IC50": "25 nM"}, {"compound": "O=C1CC(=O)N(c2ccc(-n3nnnc3Cc3ccccc3O)cc2)c2ccc3ccccc3c2N1", "note": "[Example 2, 5-[4-[5-(2-Hydroxybenzyl)-1H-tetrazol-1-yl]phenyl]-1H-naphtho[1,2-b][1,4]diazepine-2,4(3H,5H)-dione]", "IC50": "37 nM"}, {"compound": "O=C1CC(=O)N(c2ccc(-n3nnnc3CCc3cccnc3)cc2)c2ccc3ccccc3c2N1", "note": "[Example 3, 5-[4-[5-[2-(Pyridin-3-yl)ethyl]-1H-tetrazol-1-yl]phenyl]-1H-naphtho[1,2-b][1,4]diazepine-2,4(3H,5H)-dione hydrochloride]", "IC50": "380 nM"}, {"compound": "O=C1CC(=O)N(c2ccc(-n3nnnc3CCc3ccccc3)cc2)c2ccc3ccccc3c2N1", "note": "[Example 4, 5-[4-(5-Phenethyl-1H-tetrazol-1-yl)phenyl]-1H-naphtho[1,2-b][1,4]diazepine-2,4(3H,5H)-dione]", "IC50": "44 nM"}, {"compound": "O=C1CC(=O)N(c2ccc(-n3nnnc3Cc3ccccc3O)nc2)c2ccc3ccccc3c2N1", "note": "[Example 11]", "IC50": "77 nM"}, {"compound": "COc1ccccc1Cc1nnnn1-c1ccc(C2=NCC(=O)Nc3c2ccc2ccccc32)cc1", "note": "[Example 19, 5-[4-[5-(2-Methoxybenzyl)-1H-tetrazol-1-yl]phenyl]-1H-naphtho[1,2-e][1,4]diazepin-2(3H)-one]", "IC50": "320 nM"}, {"compound": "O=C1CC(=O)N(c2ccc(-c3nccn3CCc3ccccc3)cc2)c2ccc3ccccc3c2N1", "note": "[Example 22, 5-[4-(1-Phenethyl-1H-imidazol-2-yl)phenyl]-1H-naphtho[1,2-b][1,4]diazepine-2,4(3H,5H)-dione hydrochloride]", "IC50": "91 nM"}, {"compound": "O=C1CC(=O)N(c2ccc(-c3nccn3Cc3ccc(Cl)cc3)cc2)c2ccc3ccccc3c2N1", "note": "[Example 23, 5-[4-[1-(4-Chlorobenzyl)-1H-imidazol-2-yl]phenyl]-1H-naphtho[1,2-b][1,4]diazepine-2,4(3H,5H)-dione hydrochloride]", "IC50": "300 nM"}, {"compound": "COc1cccc(CCn2ccnc2-c2ccc(N3C(=O)CC(=O)Nc4c3ccc3ccccc43)cc2)c1", "note": "[Example 25, 5-[4 [1-(3-Methoxyphenethyl)-1H-imidazol-2-yl]phenyl]-1H-naphtho[1,2-b][1,4]diazepine-2,4(3H,5H)-dione]", "IC50": "82 nM"}, {"compound": "O=C1CC(=O)N(c2ccc(-c3nccn3CCc3cccc(O)c3)cc2)c2ccc3ccccc3c2N1", "note": "[Example 27, 5-[4-[1-(3-Hydroxyphenethyl)-1H-imidazol-2-yl]phenyl]-1H-naphtho[1,2-b][1,4]diazepine-2,4(3H,5H)-dione]", "IC50": "78 nM"}, {"compound": "Cc1cccc(CCc2nnnn2-c2ccc(N3C(=O)CC(=O)Nc4c3ccc3ccccc43)cc2)n1", "note": "[Example 30, 5-[4-[5-[2-(6-Methylpyridin-2-ylethyl)-1H-tetrazol-1-yl]-phenyl]-1H-naphtho[1,2-b][1,4]diazepine-2,4(3H,5H)-dione hydrochloride]", "IC50": "270 nM"}, {"compound": "O=C1CC(=O)N(c2ccc(-n3ccnc3CCc3cccc(F)c3)cc2)c2ccc3ccccc3c2N1", "note": "[Example 31, 5-[4-[(2-(3-Fluorophenyl)ethyl)-1H-imidazol-1-yl]phenyl]-1H-naphtho[1,2-b][1,4]diazepine-2,4(3H,5H)-dione hydrochloride]", "IC50": "51 nM"}, {"compound": "COc1ccccc1CCc1nccn1-c1ccc(N2C(=O)CC(=O)Nc3c2ccc2ccccc32)cc1", "note": "[Example 32, 5-[4-[(2-(2-Methoxyphenyl)ethyl)-1H-imidazol-1-yl]phenyl]-1H-naphtho[1,2-b][1,4]diazepine-2,4(3H,5H)-dione hydrochloride]", "IC50": "180 nM"}, {"compound": "Cc1cccc(C)c1CCc1nccn1-c1ccc(N2C(=O)CC(=O)Nc3c2ccc2ccccc32)cc1", "note": "[Example 37, 5-[4-[2-(2,6-Dimethylphenylethyl)-1H-imidazol-1-yl]phenyl]-1H-naphtho[1,2-b][1,4]diazepine-2,4(3H,5H)-dione hydrochloride]", "IC50": "79 nM"}, {"compound": "O=C1CC(=O)N(c2ccc(-n3ccnc3CCc3cccc(C(F)(F)F)c3)cc2)c2ccc3ccccc3c2N1", "note": "[Example 38, 5-[4-[2-[3-(Trifluoromethyl)phenylethyl]-1H-imidazol-1-yl]phenyl]-1H-naphtho[1,2-b][1,4]diazepine-2,4(3H,5H)-dione hydrochloride]", "IC50": "550 nM"}, {"compound": "O=C1CN=C(c2ccc(-n3nnnc3CCc3ccccc3)cc2)c2ccc3ccccc3c2N1", "note": "[Example 40, 5-[4-(5-Phenethyl-1H-tetrazol-1-yl)phenyl]-1H-naphtho[1,2-e][1,4]diazepin-2(3H)-one]", "IC50": "630 nM"}, {"compound": "O=C1CN=C(c2ccc(-n3ccnc3CCc3ccccc3)cc2)c2ccc3ccccc3c2N1", "note": "[Example 41, 5-[4-(2-Phenethyl-1H-imidazol-1-yl)phenyl]-1H-naphtho[1,2-e][1,4]diazepin-2(3H)-one dihydrochloride]", "IC50": "650 nM"}, {"compound": "O=C1CC(=O)N(c2ccc(-n3ccnc3CCc3cccc(O)c3)cc2)c2ccc3ccccc3c2N1", "note": "[Example 43, 5-[4-[2-(3-Hydroxyphenethyl)-1H-imidazol-1-yl]phenyl]-1H-naphtho[1,2-b][1,4]diazepine-2,4(3H,5H)-dione hydrochloride]", "IC50": "53 nM and 190 nM"}, {"compound": "CN(C)c1ccccc1Cc1nnnn1-c1ccc(N2C(=O)CC(=O)Nc3c2ccc2ccccc32)cc1", "note": "[Example 47, 5-[4-[5-[2-(Dimethylamino)benzyl]-1H-tetrazol-1-yl]phenyl]-1H-naphtho[1,2-b][1,4]diazepine-2,4(3H,5H)-dione mesylate]", "IC50": "94 nM"}, {"compound": "O=C1CC(=O)N(c2ccc(-n3ccnc3-c3ccccc3)cc2)c2ccc3ccccc3c2N1", "note": "[Example 50, 5-[4-(2-Phenyl-1H-imidazol-1-yl)phenyl]-1H-naphtho[1,2-b][1,4]diazepine-2,4(3H,5H)-dione]", "IC50": "3700 nM"}, {"compound": "COc1ccccc1-c1nccn1-c1ccc(N2C(=O)CC(=O)Nc3c2ccc2ccccc32)cc1", "note": "[Example 51, 5-[4-[2-(2-Methoxyphenyl)-1H-imidazol-1-yl]phenyl]-1H-naphtho[1,2-b][1,4]diazepine-2,4(3H,5H)-dione]", "IC50": "1700 nM"}, {"compound": "NC(=O)c1ccccc1Cn1ccnc1-c1ccc(N2C(=O)CC(=O)Nc3c2ccc2ccccc32)cc1", "note": "[Example 53, 2-[[2-[4-(2,4-Dioxo-3,4-dihydro-1H-naphtho[1,2-b][1,4]diazepin-5(2H)-yl)phenyl]-1H-imidazol-1-yl]methyl]benzamide]", "IC50": "590 nM"}, {"compound": "N#Cc1ccccc1CCc1nccn1-c1ccc(N2C(=O)CC(=O)Nc3c2ccc2ccccc32)cc1", "note": "[Example 54, 2-[2-[1-[4-(2,4-Dioxo-3,4-dihydro-1H-naphtho[1,2-b][1,4]diazepin-5(2H)-yl)phenyl]-1H-imidazol-2-yl]ethyl]benzonitrile]", "IC50": "190 nM"}, {"compound": "NC(=O)c1ccccc1CCc1nccn1-c1ccc(N2C(=O)CC(=O)Nc3c2ccc2ccccc32)cc1", "note": "[Example 55, 2-[2-[1-[4-(2,4-Dioxo-3,4-dihydro-1H-naphtho[1,2-b][1,4]diazepin-5(2H)-yl)phenyl]-1H-imidazol-2-yl]ethyl]benzamide]", "IC50": "340 nM"}, {"compound": "NC(=O)c1cccc(CCc2nccn2-c2ccc(N3C(=O)CC(=O)Nc4c3ccc3ccccc43)cc2)c1", "note": "[Example 57, 3-[2-[1-[4-(2,4-Dioxo-3,4-dihydro-1H-naphtho[1,2-b][1,4]diazepin-5(2H)-yl)phenyl]-1H-imidazol-2-yl]ethyl]benzamide]", "IC50": "130 nM"}, {"compound": "COc1cccc(CCc2nccn2-c2ccc(N3C(=O)CC(=O)Nc4c3ccc3c4CCC3)cc2)c1", "note": "[Example 61, 5-[4-[2-(3-Methoxyphenethyl)-1H-imidazol-1-yl]phenyl]-5,8,9,10-tetrahydroindeno[4,5-b][1,4]diazepine-2,4(1H,3H)-dione hydrochloride]", "IC50": "74 nM"}, {"compound": "O=C1CC(=O)N(c2ccc(-n3ccnc3CCc3ccsc3)cc2)c2ccc3ccccc3c2N1", "note": "[Example 62, 5-[4-[2-[2-(Thiophen-3-yl)ethyl]-1H-imidazol-1-yl]phenyl]-1H-naphtho[1,2-b][1,4]diazepine-2,4(3H,5H)-dione hydrochloride]", "IC50": "88 nM"}, {"compound": "COc1cc(N2C(=O)CC(=O)Nc3c2ccc2ccccc32)ccc1-c1nccn1CCc1ccccc1", "note": "[Example 64, 5-[3-Methoxy-4-(1-phenethyl-1H-imidazol-2-yl)-phenyl]-1H-naphtho[1,2-b][1,4]diazepine-2,4(3H,5H)-dione]", "IC50": "520 nM"}, {"compound": "O=C1CC(=O)N(c2ccc(-c3nccn3CCc3ccccc3)c(O)c2)c2ccc3ccccc3c2N1", "note": "[Example 65, 5-[3-Hydroxy-4-(1-phenethyl-1H-imidazol-2-yl)-phenyl]-1H-naphtho[1,2-b][1,4]diazepine-2,4(3H,5H)-dione]", "IC50": "130 nM"}, {"compound": "O=C1CC(=O)N(c2ccc(-n3ccnc3CCc3ccco3)cc2)c2ccc3ccccc3c2N1", "note": "[Example 66, 5-[4-[2-[2-(Furan-2-yl)ethyl]-H-imidazol-1-yl]-phenyl]-1H-naphtho[1,2-b][1,4]diazepine-2,4(3H,5H)-dione hydrochloride]", "IC50": "550 nM"}]}]}
